From ChEMBL document CHEMBL1130843, “Design and synthesis of an orally active GPIIb/IIIa antagonist based on a phenylpiperazine scaffold” (Bioorg Med Chem Lett, 1998)

What was measured:
[1] = target: Integrin alpha-IIb/beta-3 (Homo sapiens, UniProt P05106+P08514); assay: Inhibition of fibrinogen binding to platelet glycoprotein alpha IIb beta-3 integrin in ELISA
[2] = species: Homo sapiens; assay: Compound was tested for inhibition of ADP induced platelet aggregation in human platelet-rich plasma; assay type: functional
[3] = species: Cavia porcellus; assay: Compound was tested for inhibition of ADP induced platelet aggregation in guinea pig; assay type: functional

Integrin alpha-IIb/beta-3, sequence (P05106 27-788 limits assumed): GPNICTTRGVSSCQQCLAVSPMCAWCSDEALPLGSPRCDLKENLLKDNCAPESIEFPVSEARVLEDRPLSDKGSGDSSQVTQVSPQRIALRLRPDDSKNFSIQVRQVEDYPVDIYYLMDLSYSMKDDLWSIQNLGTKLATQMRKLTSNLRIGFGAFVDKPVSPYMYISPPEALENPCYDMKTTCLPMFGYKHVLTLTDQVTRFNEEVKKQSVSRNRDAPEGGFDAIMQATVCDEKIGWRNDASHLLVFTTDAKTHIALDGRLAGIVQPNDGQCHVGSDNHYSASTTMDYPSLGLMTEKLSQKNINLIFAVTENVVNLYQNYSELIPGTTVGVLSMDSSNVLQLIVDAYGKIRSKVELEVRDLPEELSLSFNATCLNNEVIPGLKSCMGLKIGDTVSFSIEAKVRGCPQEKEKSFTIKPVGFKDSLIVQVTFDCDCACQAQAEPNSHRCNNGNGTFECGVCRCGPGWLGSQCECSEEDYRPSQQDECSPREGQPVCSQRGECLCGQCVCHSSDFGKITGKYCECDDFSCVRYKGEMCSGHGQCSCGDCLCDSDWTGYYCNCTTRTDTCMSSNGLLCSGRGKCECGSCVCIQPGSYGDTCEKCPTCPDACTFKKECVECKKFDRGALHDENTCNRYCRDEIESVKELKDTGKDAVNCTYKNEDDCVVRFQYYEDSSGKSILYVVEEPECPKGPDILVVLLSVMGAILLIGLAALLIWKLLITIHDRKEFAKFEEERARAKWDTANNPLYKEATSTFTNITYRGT
Integrin alpha-IIb/beta-3, sequence (P08514 32-887 limits assumed): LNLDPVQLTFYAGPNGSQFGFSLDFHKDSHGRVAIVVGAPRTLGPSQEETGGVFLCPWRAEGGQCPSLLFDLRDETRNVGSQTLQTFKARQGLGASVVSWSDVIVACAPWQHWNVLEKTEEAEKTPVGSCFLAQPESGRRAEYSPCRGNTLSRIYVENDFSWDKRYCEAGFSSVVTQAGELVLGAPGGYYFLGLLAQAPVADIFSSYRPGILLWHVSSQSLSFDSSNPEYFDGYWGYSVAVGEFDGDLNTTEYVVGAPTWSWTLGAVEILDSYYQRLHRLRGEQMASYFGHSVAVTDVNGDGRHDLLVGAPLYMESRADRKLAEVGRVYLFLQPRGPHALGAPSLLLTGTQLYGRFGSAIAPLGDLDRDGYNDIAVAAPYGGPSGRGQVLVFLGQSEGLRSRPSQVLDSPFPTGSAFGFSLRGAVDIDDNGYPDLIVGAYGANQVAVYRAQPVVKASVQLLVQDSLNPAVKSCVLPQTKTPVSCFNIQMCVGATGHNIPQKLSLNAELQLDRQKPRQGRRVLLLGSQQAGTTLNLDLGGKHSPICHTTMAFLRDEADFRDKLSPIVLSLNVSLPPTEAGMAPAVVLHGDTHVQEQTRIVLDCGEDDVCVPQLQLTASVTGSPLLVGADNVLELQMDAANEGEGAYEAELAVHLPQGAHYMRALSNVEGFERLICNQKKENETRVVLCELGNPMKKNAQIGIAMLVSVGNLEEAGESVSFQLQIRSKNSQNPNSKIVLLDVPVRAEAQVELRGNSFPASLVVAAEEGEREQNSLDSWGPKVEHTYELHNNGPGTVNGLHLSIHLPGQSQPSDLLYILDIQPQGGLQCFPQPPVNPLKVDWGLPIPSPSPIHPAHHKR
Integrin alpha-IIb/beta-3, sequence (P08514 891-1039 limits assumed): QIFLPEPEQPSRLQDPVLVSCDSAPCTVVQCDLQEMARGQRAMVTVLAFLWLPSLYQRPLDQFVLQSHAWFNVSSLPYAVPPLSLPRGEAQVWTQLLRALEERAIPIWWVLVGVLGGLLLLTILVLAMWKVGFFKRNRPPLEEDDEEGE

| SMILES | IC50 [1] [nM] | IC50 [2] [nM] | IC50 [3] [nM] |
| --- | --- | --- | --- |
| N=C(N)c1ccc(N2CCN(c3cccc(OCC(=O)O)c3)CC2)cc1 | 2000 |  |  |
| N=C(N)c1ccc(N2CCN(c3ccc(OCCCC(=O)O)cc3)CC2)cc1 | > 10000 |  |  |
| N=C(N)c1ccc(N2CCN(C3CCN(CC(=O)O)CC3)CC2)cc1 | 7.94 | 631 | 251 |
| N=C(N)c1ccc(N2CCN(c3cccc(CC(=O)O)c3)CC2)cc1 | 1580 |  |  |
| CN(CC(=O)c1ccc(OCC(=O)O)c(OCC(=O)O)c1)C(=O)c1ccc(C(=N)N)cc1 | 1 |  | 251 |
| CC(C)(Oc1ccc(N2CCN(c3ccc(C(=N)N)cc3)CC2)cc1)C(=O)O | 1000 |  |  |
| N=C(N)c1ccc(N2CCN(c3ccc(OCC(=O)O)cc3)CC2)cc1 | 2 | 1000 | 3160 |

Continued, values first:

| IC50 [1] [nM] | IC50 [2] [nM] | IC50 [3] [nM] | SMILES |
| --- | --- | --- | --- |
| 1260 |  |  | N=C(N)c1ccc(N2CCN(Cc3cccc(CC(=O)O)c3)CC2)cc1 |
| 200 |  |  | N=C(N)c1ccc(N2CCN(Cc3ccc(CC(=O)O)cc3)CC2)cc1 |
| 15800 |  |  | N=C(N)c1ccc(CN2CCN(c3cccc(OCC(=O)O)c3)CC2)cc1 |
| 25.1 |  |  | N=C(N)c1ccc(N2CCN(c3ccc(CCC(=O)O)cc3)CC2)cc1 |
| 1000 |  |  | N=C(N)c1ccc(N2CCN(c3ccc(CC(=O)O)cc3)CC2)cc1 |
| 39800 |  |  | N=C(N)c1ccc(CN2CCN(c3cccc(CC(=O)O)c3)CC2)cc1 |
| 3980 |  |  | N=C(N)c1ccc(N2CCN(Cc3cccc(OCC(=O)O)c3)CC2)cc1 |
| 2510 |  |  | N=C(N)c1ccc(CN2CCN(c3ccc(CC(=O)O)cc3)CC2)cc1 |
